Measured values as given in article PMC12114461, “A Natural Inhibitor, 1′S-1′-Acetoxychavicol Acetate, Against Testosterone-Induced Alopecia via NADPH Oxidase Regulation” (Molecules, 2025).

Legend:
Type in all cases: biochemical
Nox2 (hNox2) = target: T1, Nox2 (hNox2) (Homo sapiens, UniProt P04839); test: lucigenin chemiluminescence ROS assay in Drosophila membranes expressing hNox2
T1 construct: gene CYBB; membranes from transgenic Drosophila (Duox knockdown) over-expressing human Nox2
T1 sequence (P04839 2-570): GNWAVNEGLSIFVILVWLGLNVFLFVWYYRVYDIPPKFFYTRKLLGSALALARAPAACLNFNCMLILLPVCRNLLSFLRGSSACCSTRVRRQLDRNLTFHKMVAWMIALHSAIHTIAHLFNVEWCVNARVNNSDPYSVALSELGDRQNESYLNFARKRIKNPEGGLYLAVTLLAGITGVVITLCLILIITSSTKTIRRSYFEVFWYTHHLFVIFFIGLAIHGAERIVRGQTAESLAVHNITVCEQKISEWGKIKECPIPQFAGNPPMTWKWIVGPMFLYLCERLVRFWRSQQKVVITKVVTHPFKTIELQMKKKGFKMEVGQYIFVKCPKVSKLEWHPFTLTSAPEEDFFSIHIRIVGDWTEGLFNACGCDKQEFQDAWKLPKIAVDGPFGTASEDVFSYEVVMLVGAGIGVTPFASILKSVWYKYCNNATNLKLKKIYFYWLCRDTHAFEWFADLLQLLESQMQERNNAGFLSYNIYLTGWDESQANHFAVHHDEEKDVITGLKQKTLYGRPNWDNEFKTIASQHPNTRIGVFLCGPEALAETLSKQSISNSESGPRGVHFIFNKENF

Nox4 (hNox4) = target: T2, Nox4 (hNox4) (Homo sapiens, UniProt Q9NPH5); test: lucigenin chemiluminescence ROS assay in Drosophila membranes expressing hNox4
T2 construct: membranes from transgenic Drosophila (Duox knockdown) over-expressing human Nox4
T2 sequence (Q9NPH5 1-578): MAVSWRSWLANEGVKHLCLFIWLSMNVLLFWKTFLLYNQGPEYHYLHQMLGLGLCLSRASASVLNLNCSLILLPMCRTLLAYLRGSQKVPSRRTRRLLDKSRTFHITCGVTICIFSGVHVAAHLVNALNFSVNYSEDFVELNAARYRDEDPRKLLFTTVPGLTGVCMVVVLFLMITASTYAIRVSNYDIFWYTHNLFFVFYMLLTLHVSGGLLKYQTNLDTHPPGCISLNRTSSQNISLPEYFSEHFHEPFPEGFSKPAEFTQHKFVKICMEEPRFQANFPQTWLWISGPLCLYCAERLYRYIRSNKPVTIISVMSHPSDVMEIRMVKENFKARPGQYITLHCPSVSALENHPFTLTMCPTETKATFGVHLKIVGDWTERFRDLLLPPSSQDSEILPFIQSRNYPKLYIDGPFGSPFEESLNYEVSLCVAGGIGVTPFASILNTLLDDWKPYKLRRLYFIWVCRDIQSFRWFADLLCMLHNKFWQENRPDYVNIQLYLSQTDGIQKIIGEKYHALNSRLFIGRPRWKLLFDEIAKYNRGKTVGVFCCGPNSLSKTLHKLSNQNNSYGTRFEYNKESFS

Nox1 (hNox1) = target: T3, Nox1 (hNox1) (Homo sapiens, UniProt Q9Y5S8); test: lucigenin chemiluminescence ROS assay in Drosophila membranes expressing hNox1
T3 construct: membranes from transgenic Drosophila (Duox knockdown) over-expressing human Nox1
T3 sequence (Q9Y5S8 1-564): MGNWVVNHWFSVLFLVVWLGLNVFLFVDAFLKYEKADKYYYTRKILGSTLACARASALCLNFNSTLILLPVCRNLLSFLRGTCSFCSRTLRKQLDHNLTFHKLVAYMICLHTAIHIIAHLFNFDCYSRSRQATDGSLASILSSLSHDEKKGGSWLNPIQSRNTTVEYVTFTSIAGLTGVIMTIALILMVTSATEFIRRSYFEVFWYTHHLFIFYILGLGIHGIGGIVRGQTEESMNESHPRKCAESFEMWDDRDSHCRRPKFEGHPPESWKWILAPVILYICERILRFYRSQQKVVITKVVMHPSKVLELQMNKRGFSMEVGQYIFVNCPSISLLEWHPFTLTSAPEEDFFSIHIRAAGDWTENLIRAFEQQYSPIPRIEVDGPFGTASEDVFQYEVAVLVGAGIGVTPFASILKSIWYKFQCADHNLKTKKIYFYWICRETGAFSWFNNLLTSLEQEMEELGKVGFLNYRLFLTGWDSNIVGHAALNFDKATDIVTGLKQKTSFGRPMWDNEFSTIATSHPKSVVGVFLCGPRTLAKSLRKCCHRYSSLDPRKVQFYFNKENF

Duox1 (hDuox1) = target: T4, Duox1 (hDuox1) (Homo sapiens, UniProt Q9NRD9); test: lucigenin chemiluminescence ROS assay in Drosophila membranes expressing hDuox1
T4 construct: membranes from transgenic Drosophila (Duox knockdown) over-expressing human Duox1
T4 sequence (Q9NRD9 22-1551): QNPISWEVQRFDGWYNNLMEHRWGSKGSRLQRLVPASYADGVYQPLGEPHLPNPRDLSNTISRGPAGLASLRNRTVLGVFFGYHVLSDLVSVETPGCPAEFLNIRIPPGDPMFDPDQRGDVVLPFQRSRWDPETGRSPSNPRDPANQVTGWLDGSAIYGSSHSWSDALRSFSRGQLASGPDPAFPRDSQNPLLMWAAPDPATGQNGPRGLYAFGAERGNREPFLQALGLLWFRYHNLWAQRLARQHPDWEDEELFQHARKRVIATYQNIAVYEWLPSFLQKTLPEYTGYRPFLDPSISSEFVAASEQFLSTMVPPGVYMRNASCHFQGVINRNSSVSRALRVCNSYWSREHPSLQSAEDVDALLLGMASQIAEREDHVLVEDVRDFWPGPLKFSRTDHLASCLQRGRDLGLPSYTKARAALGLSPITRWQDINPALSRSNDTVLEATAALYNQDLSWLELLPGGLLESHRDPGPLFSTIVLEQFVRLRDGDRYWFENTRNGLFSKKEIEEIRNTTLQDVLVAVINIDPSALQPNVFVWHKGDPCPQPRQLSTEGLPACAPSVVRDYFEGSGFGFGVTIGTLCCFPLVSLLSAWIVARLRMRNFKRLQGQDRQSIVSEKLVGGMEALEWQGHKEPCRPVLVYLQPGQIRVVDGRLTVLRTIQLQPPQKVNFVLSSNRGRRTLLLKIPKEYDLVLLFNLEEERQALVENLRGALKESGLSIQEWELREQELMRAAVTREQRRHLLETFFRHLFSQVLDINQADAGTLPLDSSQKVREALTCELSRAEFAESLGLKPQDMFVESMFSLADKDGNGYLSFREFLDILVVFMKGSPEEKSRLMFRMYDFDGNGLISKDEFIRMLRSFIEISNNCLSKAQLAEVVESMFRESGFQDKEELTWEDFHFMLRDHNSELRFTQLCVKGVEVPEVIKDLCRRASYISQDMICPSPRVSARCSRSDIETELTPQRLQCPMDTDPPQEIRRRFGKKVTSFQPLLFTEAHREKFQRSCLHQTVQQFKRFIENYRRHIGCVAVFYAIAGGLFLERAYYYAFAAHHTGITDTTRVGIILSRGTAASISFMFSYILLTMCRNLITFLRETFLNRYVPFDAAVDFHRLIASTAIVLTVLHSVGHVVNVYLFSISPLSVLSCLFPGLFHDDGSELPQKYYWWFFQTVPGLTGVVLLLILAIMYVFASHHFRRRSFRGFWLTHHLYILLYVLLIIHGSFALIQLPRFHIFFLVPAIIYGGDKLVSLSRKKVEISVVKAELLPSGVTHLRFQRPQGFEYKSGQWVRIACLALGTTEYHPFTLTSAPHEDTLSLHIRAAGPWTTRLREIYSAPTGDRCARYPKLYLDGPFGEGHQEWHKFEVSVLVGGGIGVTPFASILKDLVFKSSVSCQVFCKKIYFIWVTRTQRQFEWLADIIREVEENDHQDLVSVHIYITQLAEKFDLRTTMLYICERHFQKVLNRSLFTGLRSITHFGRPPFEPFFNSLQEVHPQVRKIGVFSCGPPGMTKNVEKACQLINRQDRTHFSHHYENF

`C=C[C@H](OC(C)=O)c1ccc(OC(C)=O)cc1` [compound 26, 1′S-1′-acetoxychavicol acetate] showed an IC50 (Nox2 (hNox2)) of 42.3 µM, an IC50 (Nox4 (hNox4)) of 31.3 µM and an IC50 (Nox1 (hNox1)) of 32.7 µM. It also gave an IC50 (Duox1 (hDuox1)) of 30.8 µM.
